Test results: ChEMBL document CHEMBL4477163, “Rubiaceae-Type Cyclopeptides from Galianthe thalictroides” (2016)
In brackets after ≈: the same amount, converted by molar mass.

Experiments:
Format in all cases: functional
786-0 = experiment: Cytotoxicity against human 786-0 cells by sulforhodamine B assay
HT-29 = experiment: Cytotoxicity against human HT-29 cells by sulforhodamine B assay
PC-3 = experiment: Cytotoxicity against human PC3 cells by sulforhodamine B assay
P388 = experiment: Cytotoxicity against mouse P388 cells at 1 mg/ml relative to control

For `COc1ccc(C[C@H]2C(=O)N[C@@H](C)C(=O)N(C)[C@@H]3C(=O)N(C)[C@@H](Cc4ccc(OC)c(c4)Oc4ccc(cc4)[C@@H]3O)C(=O)N[C@H](C)C(=O)N[C@@H](CO)C(=O)N2C)cc1`, the GI50 (786-0) was 1.14 µg/mL (≈ 1.42 µM), the GI50 (HT-29) was 1.8 µg/mL (≈ 2.24 µM) and the GI50 (PC-3) was 0.26 µg/mL (≈ 0.324 µM).

`COc1ccc(C[C@H]2C(=O)N[C@@H](C)C(=O)N(C)[C@@H]3C(=O)N(C)[C@@H](Cc4ccc(OC)c(c4)Oc4ccc(cc4)[C@@H]3O)C(=O)N[C@H](C)C(=O)N[C@@H](C)C(=O)N2C)cc1` gave a GI50 (786-0) of 0.07 µg/mL (≈ 0.089 µM), a GI50 (HT-29) of 0.07 µg/mL (≈ 0.089 µM) and a T/C (P388) of 134%. For the same compound, the GI50 (PC-3) was 0.06 µg/mL (≈ 0.0763 µM).

In the case of `COc1cccc2c1C(=O)c1c(O)c3c(c(O)c1C2=O)C[C@@](O)(C(=O)CO)C[C@@H]3O[C@H]1C[C@H](N)[C@H](O)[C@H](C)O1` [DOXORUBICIN], the GI50 (786-0) is reported as 0.02 µg/mL (≈ 0.0368 µM), the GI50 (HT-29) is reported as 0.27 µg/mL (≈ 0.497 µM) and the GI50 (PC-3) is reported as 0.35 µg/mL (≈ 0.644 µM).
